# Entries after “also recorded” stand apart in the source; their conditions may differ.
# What was measured:
# dermal fibroblasts = test: Floating collagen gel contraction assay; format: cell-based; details: FIG. 2; 10 nM
# Method: The individual solutions were prepared and cooled to 4° C. before mixing to prevent premature gelation. The final solution contained 40% (v/v) Vitrogen, 20% DMEM, 30% DMEM with Hepes buffer, and 10% calf serum. Cells were incubated with the appropriate drug concentration for 30 minutes at 37° C. and added to the collagen gel mix just before gel casting at the concentration of 30,000 per ml. The lattices were cast, with 1.7 ml of the final solution per dish, in 35 mm bacteriologic dishes (Falcon Labware, BD Biosciences), to which fibroblasts poorly adhere. The mixture gelled within 30 minutes upon incubation at 37° C. in a humidified atmosphere of 95 percent air and 5 percent CO2.
# To determine the effect of β2-AR antagonists on floating gel contraction (as shown in FIG. 2), lattices were detached from the sides of the dishes after 2 hours by rimming the edges of the dishes using a sterile […] and gently shaking the dishes until the gels slid freely. Lattice retraction was measured every day by placing the dishes over a flat ruler on a black background. To determine the effect of β2-AR agonists and antagonists on proliferation of cells in a model of the wound dermis, the gels remained anchored to the side of the dish (as shown in FIG. 8).
# Human dermal fibroblasts [1] = test: Tethered (anchored) collagen gel model of wounded dermis; format: cell-based; details: 10 μM, 4 days incubation; for collagen I staining in fibroblasts released from collagen gels: FIG. 8B; for smooth muscle alpha actin staining in fibroblasts released from collagen gels: FIG. 8D
# Method: 50% collagen I gels were seeded with 30,000 cells per ml in the absence or presence of a β2-AR agonist or a β2-AR antagonist.
# Human dermal fibroblasts [2] = test: Secretion of TGF-β1, TGF-β2, TGF-β3 from dermal fibroblasts (ELISA); format: cell-based; details: FIG. 9
# Method: (§1) Human dermal fibroblasts (FIGS. 9 and 15) or human neutrophils (VEGF only) (FIG. 15) were seeded into 6-well plates and grown to 60% confluence in FM. […] The supernatants were prepared and assayed using ELISA kits for TGF-β1, TGF-β2, 15 TGF-β3 and VEGF (R & D systems) following the Manufacturer's instructions.
# [3] = test system: full-thickness 6 mm excisional wounds; test: Murine excisional wound model with immunohistochemistry; details: for murine wound closure (wound area): FIG. 3, 0.1% in 100 μl hydroactive gel, topical, daily
# Method: FVB/NJ (β2-AR+/+) mice, were purchased from The Jackson laboratory (Bar Harbor, Me.). All animals used in the study were females between 8-12 weeks of age. β2-AR+/+ mice were anaesthetized by intraperitoneal injection of ketamine (100 mg/kg)/xylazine (10 mg/kg) (Pfizer). Back skin was shaved and two circular full-thickness 6 mm excisional wounds were created 2 cm apart, in the centre of the back, using a sterile 6 mm biopsy punch (SMS Inc.). […] Each mouse was housed separately after wounding until wound harvest. Wounds were left uncovered and digitally photographed, daily, to determine wound contraction over time. Wounds were harvested at days 3 and 5 post-wounding by carefully applying an 8 mm punch (SMS Inc.) around the original wound site and lightly pressing to form an outline on the skin. Scissors were then used to remove the wound site without damaging the delicate wound bed.
# For histological analysis the wounds were fixed in an IHC zinc fixative (BD Biosciences). The zinc-fixed biopsies were bisected to ensure that sections were taken from the centre of the wound, dehydrated through an ethanol xylene series, and embedded in paraffin.
# Specimens that were damaged in the histological process or otherwise non-interpretable were excluded from the study. Wound closure was quantified by measuring the wound area of each wound from the digital pictures taken every day with Image J, National Institutes of Health website. Images of the smooth muscle-alpha actin (SMA)-stained wounds were captured at 2× magnification on a Nikon SMZ-U upright microscope with Nikon ACT-1 software (as shown in FIG. 4). Image J was used to determine the area of SMA staining in each wound to calculate the mean area of SMA staining in each group (as shown in FIG. 5). Images of the collagen III stained wounds were captured at 20× magnification on a Nikon Eclipse 2000U inverted microscope with NIS-Elements software (as shown in FIG. 6). The intensity of collagen III staining was graded on a scale of 0-6, no staining receiving a score of 0 and the darkest staining receiving a score of 6 (as shown in FIG. 7). The staining of each wound was scored in a double-blind manner and the mean staining intensity was calculated for each group.
# Human dermal fibroblasts [4] = test: Secretion of VEGF from dermal fibroblasts (ELISA); format: cell-based; details: FIG. 15; after 48 hours; vs control
# Method: as §1
# human neutrophils = test: Secretion of VEGF from neutrophils (ELISA); format: cell-based; details: FIG. 15; after 48 hours; vs control
# Method: as §1
SMILES,collagen I staining in fibroblasts released from collagen gels (Human dermal fibroblasts [1]),smooth muscle alpha actin staining in fibroblasts released from collagen gels (Human dermal fibroblasts [1]),"increase in amount of TGF-β3 secreted (Human dermal fibroblasts [2]; 10 μM, 24 hours, vs control)",murine wound closure (wound area) [3],amount of VEGF secreted from human dermal fibroblasts (Human dermal fibroblasts [4]),amount of VEGF secreted from human neutrophils (human neutrophils),further results
"Cc1ccc(OCC(O)C(C)NC(C)C)c2c1CCC2 (stereo not drawn) [ICI 118,551]",increases,increases,no effect,enhances; also recorded: acceleration,–,–,"dermal fibroblast-mediated floating collagen gel contraction (dermal fibroblasts): enhance; rigidity of human dermal fibroblast-seeded collagen gels (Human dermal fibroblasts [1]; FIG. 8A): increases; increase in TGF-β1 levels (Human dermal fibroblasts [2]; 10 μM, 24 hours, vs control): 3 fold; increase in TGFβ2 levels (Human dermal fibroblasts [2]; 10 μM, after 6 hours, vs control): 1.6 fold; increase in TGF-β2 levels (Human dermal fibroblasts [2]; time given as 24 hours, not stated): 1.6 fold; smooth muscle α-actin staining / expressing cells in the wound dermis ([3]; FIGS. 4 and 5, 5 days post wounding, 0.1% topical daily, vs controls): increase; collagen III deposition (staining) in the wound dermis ([3]; FIGS. 6 and 7, 5 days post wounding, 0.1% topical daily, vs controls): increase"
COc1ccc(CC(C)NCC(O)c2ccc(O)c(NC=O)c2)cc1 (stereo not drawn) [formotorol],–,–,–,–,decrease,–,–
CC(C)NCC(O)c1ccc(O)c(O)c1 (stereo not drawn) [isoproterenol],–,–,–,–,decrease,decrease,–
CC(C)(C)NCC(O)c1ccc(O)c(CO)c1 (stereo not drawn) [salbutamol],decreases,decreases,5 fold,delayed,decrease,decrease,"human dermal fibroblast proliferation in collagen gels (Human dermal fibroblasts [1]; FIG. 8C): decreases; decrease in amount of TGF-β1 secreted (Human dermal fibroblasts [2]; 10 μM, 24 hours, vs control): 4 fold; decrease in amount of secreted TGFβ1 (Human dermal fibroblasts [2]; 10 μM, after 24 hours, vs control): 74%"
OCc1cc(C(O)CNCCCCCCOCCCCc2ccccc2)ccc1O (stereo not drawn) [salmeterol],–,–,–,–,decrease,decrease,–
CC(C)(C)NC[C@H](O)COc1nsnc1N1CCOCC1 [timolol],–,–,–,–,increase,increase,–
